Measurements published in the CheMixHub viscosity set.

Assay: xn = mol fraction of the nth substance listed

c1ccccc1 + CO
viscosity [mPa·s]
Details	293.15 K	298.15 K	303.15 K	313.15 K	323.15 K
101 kPa, x1 = 0.1598	–	–	0.564	0.491	0.411
101 kPa, x1 = 0.3449	–	–	0.563	0.507	0.405
101 kPa, x1 = 0.4474	–	–	0.559	0.478	0.414
101 kPa, x1 = 0.7425	–	–	0.546	0.469	0.411
101 kPa, x1 = 0.8277	–	–	0.54	0.49	0.413
101 kPa, x2 = 0.0504	–	0.581	–	–	–
101 kPa, x2 = 0.1	0.622	0.563	–	–	–
101 kPa, x2 = 0.152	0.615	–	0.534	0.468	0.416
101 kPa, x2 = 0.1998	–	0.553	–	–	–
101 kPa, x2 = 0.2	0.613	–	–	–	–
101 kPa, x2 = 0.272	0.613	–	0.532	0.461	0.414
101 kPa, x2 = 0.2982	–	0.56	–	–	–
101 kPa, x2 = 0.4	0.619	0.561	–	–	–
101 kPa, x2 = 0.444	0.619	–	0.536	0.469	0.415
101 kPa, x2 = 0.5	–	0.566	–	–	–
101 kPa, x2 = 0.6	0.626	0.565	–	–	–
101 kPa, x2 = 0.632	0.624	–	0.535	0.467	0.414
101 kPa, x2 = 0.7	–	0.56	–	–	–
101 kPa, x2 = 0.766	0.619	–	0.534	0.466	0.412
101 kPa, x2 = 0.8	0.626	–	–	–	–
101 kPa, x2 = 0.8009	–	0.557	–	–	–
101 kPa, x2 = 0.9	0.61	–	–	–	–
101 kPa, x2 = 0.901	0.604	–	0.527	0.464	0.411
101 kPa, x2 = 0.9013	–	0.553	–	–	–
101 kPa, x2 = 0.95	–	0.551	–	–	–
101.33 kPa, x1 = 0.04357	0.59	–	0.5121	0.4473	0.3935
101.33 kPa, x1 = 0.0572	–	–	0.562	0.5	0.415
101.33 kPa, x1 = 0.1598	–	–	0.564	0.491	0.411
101.33 kPa, x1 = 0.2216	0.6132	–	0.528	0.4585	0.4016
101.33 kPa, x1 = 0.2552	–	–	0.56	0.505	0.418
101.33 kPa, x1 = 0.3449	–	–	0.563	0.507	0.405
101.33 kPa, x1 = 0.4216	0.6197	–	0.5315	0.4613	0.4039
101.33 kPa, x1 = 0.4474	–	–	0.559	0.478	0.414
101.33 kPa, x1 = 0.603	0.6164	–	0.5296	0.4593	0.4034
101.33 kPa, x1 = 0.7425	–	–	0.546	0.469	0.411
101.33 kPa, x1 = 0.7816	0.6138	–	0.5278	0.4611	0.4073
101.33 kPa, x1 = 0.8277	–	–	0.54	0.49	0.413
101.33 kPa, x1 = 0.9285	0.6252	–	0.5399	0.4736	0.4198

c1ccccc1 + Cc1ccccc1
Details	viscosity [mPa·s]
293.15 K, 100 kPa, x2 = 0.25	0.631
293.15 K, 101 kPa, x1 = 0.28	0.584
293.15 K, 101 kPa, x1 = 0.54	0.597
293.15 K, 101 kPa, x1 = 0.78	0.607
293.15 K, 101.33 kPa, x1 = 0.1688	0.575
293.15 K, 101.33 kPa, x1 = 0.4383	0.592
293.15 K, 101.33 kPa, x1 = 0.5149	0.599
293.15 K, 101.33 kPa, x1 = 0.6583	0.606
293.15 K, 101.33 kPa, x1 = 0.7819	0.617
294.15 K, 100 kPa, x2 = 0.75	0.621
294.65 K, 101.33 kPa, x2 = 0.83	0.6216
294.75 K, 101.33 kPa, x2 = 0.202	0.6571
294.95 K, 101.33 kPa, x2 = 0.62	0.6245
295.55 K, 101.33 kPa, x2 = 0.508	0.6234
295.65 K, 101.33 kPa, x2 = 0.107	0.6473
295.85 K, 101.33 kPa, x2 = 0.272	0.6379
296.05 K, 101.33 kPa, x2 = 0.386	0.6282
297.35 K, 101.33 kPa, x2 = 0.719	0.6066
298.15 K, 101 kPa, x1 = 0.1	0.5546
298.15 K, 101 kPa, x1 = 0.1153	0.556
298.15 K, 101 kPa, x1 = 0.1272	0.555
298.15 K, 101 kPa, x1 = 0.2	0.5566
298.15 K, 101 kPa, x1 = 0.2022	0.5584
298.15 K, 101 kPa, x1 = 0.28	0.556
298.15 K, 101 kPa, x1 = 0.2965	0.5613
298.15 K, 101 kPa, x1 = 0.3	0.5595
298.15 K, 101 kPa, x1 = 0.3423	0.558
298.15 K, 101 kPa, x1 = 0.4	0.5632
298.15 K, 101 kPa, x1 = 0.4076	0.5651
298.15 K, 101 kPa, x1 = 0.5	0.5678
298.15 K, 101 kPa, x1 = 0.54	0.566
298.15 K, 101 kPa, x1 = 0.5405	0.5703
298.15 K, 101 kPa, x1 = 0.6	0.5732
298.15 K, 101 kPa, x1 = 0.7	0.5794
298.15 K, 101 kPa, x1 = 0.7024	0.579
298.15 K, 101 kPa, x1 = 0.7237	0.5802
298.15 K, 101 kPa, x1 = 0.78	0.574
298.15 K, 101 kPa, x1 = 0.8	0.5864
298.15 K, 101 kPa, x1 = 0.8593	0.5888
298.15 K, 101 kPa, x1 = 0.9	0.594
298.15 K, 101 kPa, x1 = 0.9275	0.594
298.15 K, 101 kPa, x1 = 0.9637	0.5968
298.15 K, 101.33 kPa, x1 = 0.0655	0.5543
298.15 K, 101.33 kPa, x1 = 0.0991	0.5554
298.15 K, 101.33 kPa, x1 = 0.2566	0.5591
298.15 K, 101.33 kPa, x1 = 0.3969	0.5652
298.15 K, 101.33 kPa, x1 = 0.5481	0.572
298.15 K, 101.33 kPa, x1 = 0.6618	0.5783
298.15 K, 101.33 kPa, x1 = 0.8029	0.5874
298.15 K, 101.33 kPa, x1 = 0.9087	0.5951
303.15 K, 101 kPa, x1 = 0.28	0.525
303.15 K, 101 kPa, x1 = 0.54	0.531
303.15 K, 101 kPa, x1 = 0.78	0.539
303.15 K, 101.3 kPa, x1 = 0.0529	0.5206
303.15 K, 101.3 kPa, x1 = 0.1185	0.522
303.15 K, 101.3 kPa, x1 = 0.2615	0.5257
303.15 K, 101.3 kPa, x1 = 0.3482	0.5277
303.15 K, 101.3 kPa, x1 = 0.4486	0.5312
303.15 K, 101.3 kPa, x1 = 0.5963	0.5372
303.15 K, 101.3 kPa, x1 = 0.7138	0.5426
303.15 K, 101.3 kPa, x1 = 0.8413	0.5482
303.15 K, 101.3 kPa, x1 = 0.9558	0.5538
303.15 K, 101.33 kPa, x1 = 0.1688	0.509
303.15 K, 101.33 kPa, x1 = 0.4383	0.523
303.15 K, 101.33 kPa, x1 = 0.5149	0.526
303.15 K, 101.33 kPa, x1 = 0.6583	0.529
303.15 K, 101.33 kPa, x1 = 0.7819	0.54
303.15 K, 101.33 kPa, x2 = 0.1	0.587
303.15 K, 101.33 kPa, x2 = 0.2	0.576
303.15 K, 101.33 kPa, x2 = 0.402	0.563
303.15 K, 101.33 kPa, x2 = 0.6	0.551
303.15 K, 101.33 kPa, x2 = 0.8	0.539
303.15 K, 101.33 kPa, x2 = 0.899	0.53
305.15 K, 101.33 kPa, x2 = 0.83	0.5517
305.35 K, 101.33 kPa, x2 = 0.508	0.5535
305.35 K, 101.33 kPa, x2 = 0.719	0.554
305.55 K, 101.33 kPa, x2 = 0.107	0.5782
305.55 K, 101.33 kPa, x2 = 0.62	0.5525
305.65 K, 101.33 kPa, x2 = 0.202	0.57
305.75 K, 101.33 kPa, x2 = 0.386	0.5579
308.15 K, 101 kPa, x1 = 0.54	0.502
308.15 K, 101 kPa, x1 = 0.78	0.506
308.15 K, 101.33 kPa, x2 = 0.1	0.564
308.15 K, 101.33 kPa, x2 = 0.2	0.556
308.15 K, 101.33 kPa, x2 = 0.402	0.541
308.15 K, 101.33 kPa, x2 = 0.6	0.532
308.15 K, 101.33 kPa, x2 = 0.8	0.518
308.15 K, 101.33 kPa, x2 = 0.899	0.507
312.85 K, 101.33 kPa, x2 = 0.107	0.5215
312.95 K, 101.33 kPa, x2 = 0.202	0.5201
312.95 K, 101.33 kPa, x2 = 0.272	0.5187
313.05 K, 101.33 kPa, x2 = 0.719	0.5077
313.15 K, 101 kPa, x1 = 0.28	0.472
313.15 K, 101 kPa, x1 = 0.54	0.476
313.15 K, 101 kPa, x1 = 0.78	0.48
313.15 K, 101.33 kPa, x1 = 0.1688	0.456
313.15 K, 101.33 kPa, x1 = 0.4383	0.463
313.15 K, 101.33 kPa, x1 = 0.6583	0.471
313.15 K, 101.33 kPa, x1 = 0.7819	0.479
313.15 K, 101.33 kPa, x2 = 0.1	0.55
313.15 K, 101.33 kPa, x2 = 0.2	0.529
313.15 K, 101.33 kPa, x2 = 0.402	0.517
313.15 K, 101.33 kPa, x2 = 0.6	0.505
313.15 K, 101.33 kPa, x2 = 0.8	0.491
313.15 K, 101.33 kPa, x2 = 0.899	0.483
313.25 K, 101.33 kPa, x2 = 0.386	0.51
313.35 K, 101.33 kPa, x2 = 0.508	0.5064
313.45 K, 101.33 kPa, x2 = 0.62	0.5057
313.45 K, 101.33 kPa, x2 = 0.83	0.5068
318.15 K, 101.33 kPa, x2 = 0.1	0.531
318.15 K, 101.33 kPa, x2 = 0.2	0.517
318.15 K, 101.33 kPa, x2 = 0.402	0.5
318.15 K, 101.33 kPa, x2 = 0.6	0.484
318.15 K, 101.33 kPa, x2 = 0.8	0.471
318.15 K, 101.33 kPa, x2 = 0.899	0.464
322.55 K, 101.33 kPa, x2 = 0.719	0.464
322.85 K, 101.33 kPa, x2 = 0.83	0.4607
322.95 K, 101.33 kPa, x2 = 0.202	0.4648
323.05 K, 101.33 kPa, x2 = 0.62	0.4581
323.15 K, 100 kPa, x2 = 0.25	0.431
323.15 K, 100 kPa, x2 = 0.5	0.427
323.15 K, 100 kPa, x2 = 0.75	0.424
323.15 K, 101.33 kPa, x1 = 0.1688	0.411
323.15 K, 101.33 kPa, x1 = 0.4383	0.416
323.15 K, 101.33 kPa, x1 = 0.5149	0.42
323.15 K, 101.33 kPa, x1 = 0.6583	0.423
323.15 K, 101.33 kPa, x1 = 0.7819	0.424
